PMC12444472, “BCI inhibits MKP3 by targeting the kinase-binding domain and disrupting ERK2 interaction” (The Journal of Biological Chemistry, 2025)
Where a chain is given by its changes, count along the chain named.

Experiments:
Format in all cases: biochemical
MKP3 R85G = target: T1, MKP3 R85G (Homo sapiens, UniProt Q16828, R85G); assay: Phosphatase activity of MKP3 mutant toward pNPP with ERK2; conditions: 1 µM enzyme, 1 µM ERK2, 8 mM pNPP, 2.5 μM BCI
T1 construct: MKP3(1–381) (MKP3^FL); made in house; host or cells: Escherichia coli BL21(DE3)
T1 sequence (Q16828 1-381 R85G): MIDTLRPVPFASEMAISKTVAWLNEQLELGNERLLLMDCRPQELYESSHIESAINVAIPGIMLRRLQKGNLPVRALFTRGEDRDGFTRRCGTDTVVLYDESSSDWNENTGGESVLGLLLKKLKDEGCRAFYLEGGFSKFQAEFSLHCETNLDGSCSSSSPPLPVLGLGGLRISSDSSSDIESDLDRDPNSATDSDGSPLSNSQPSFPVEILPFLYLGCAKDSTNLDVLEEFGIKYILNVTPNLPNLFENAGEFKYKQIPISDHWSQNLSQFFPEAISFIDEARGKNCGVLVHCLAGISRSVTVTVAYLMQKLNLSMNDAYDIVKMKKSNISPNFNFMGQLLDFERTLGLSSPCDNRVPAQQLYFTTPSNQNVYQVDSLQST
Description: (§1) The phosphatase activity of MKP3 toward pNPP was measured using continuous spectrophotometric assays, either in the absence or the presence of ERK2 at a 1:1 M ratio with MKP3. Experiments were conducted at 25 °C in a reaction mixture with a total volume of 1.8 ml, containing 50 mM Mops (pH 7.0), 100 mM NaCl, and 0.1 mM EDTA. MKP3 (1 μM) was preincubated with varying concentrations of the inhibitor BCI for 5 min before initiating the reaction by adding pNPP at concentrations ranging from 0 to 14 mM. Continuous absorbance changes were recorded using a PerkinElmer LAMBDA 45 spectrophotometer equipped with a magnetic stirrer in the cuvette holder. The production of p-nitrophenol was monitored at 410 nm using an extinction coefficient of 18,000 M^-1 cm^-1.
(§2) Figure S2. Inhibition of full-length MKP3 mutant activity by BCI. The phosphatase activities (v0) of full-length MKP3 and its mutants (E81G, R83G, R85G, R87G, and R89A) at 1 µM concentration were measured using continuous spectrophotometric assays with 8 mM pNPP as the substrate, in the presence of ERK2 (1 µM), either without or with 2.5 μM BCI. Data are presented as mean ± SD (n = 3). Reactions were performed at 25 °C in a total volume of 1.8 mL, in a buffer containing 50 mM MOPS (pH 7.0), 100 mM NaCl, and 0.1 mM EDTA.

MKP3 R89A = target: T2, MKP3 R89A (Homo sapiens, UniProt Q16828, R89A); assay: as above; conditions: 1 µM enzyme, 1 µM ERK2, 8 mM pNPP, 2.5 μM BCI
T2 construct: MKP3(1–381) (MKP3^FL); made in house; host or cells: Escherichia coli BL21(DE3)
T2 sequence (Q16828 1-381 R89A): T1 sequence (Q16828 1-381 R85G) with G85R, R89A
Description: as §1, §2

MKP3^CD = target: T3, MKP3^CD (Homo sapiens, UniProt Q16828); assay: Phosphatase activity toward pERK2 (coupled MESG assay); conditions: initial velocities in absence and presence of BCI, n = 3
T3 construct: ^15N-labeled MKP3^1–154, MKP3^14–152, MKP3^204–350; made in house; host or cells: Escherichia coli BL21(DE3)
T3 sequence (Q16828 204-350): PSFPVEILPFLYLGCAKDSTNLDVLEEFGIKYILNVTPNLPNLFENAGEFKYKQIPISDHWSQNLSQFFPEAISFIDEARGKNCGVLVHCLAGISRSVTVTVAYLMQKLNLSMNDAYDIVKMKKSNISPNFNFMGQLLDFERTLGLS
Description: (§3) The phosphatase activity of MKP3 (0.5 μM) toward pERK2 (0.5 μM) was measured using a coupled assay, in which phosphate released from the substrate was transferred to 7-methyl-6-thioguanosine (MESG) by purine nucleoside phosphorylase. Assays were performed in a reaction mixture containing 50 mM Mops (pH 7.0), 100 mM NaCl, 0.1 mM EDTA, 100 μM MESG, 4 μM purine nucleoside phosphorylase, and varying concentrations of BCI, as indicated in Figure 5. Dephosphorylation was monitored by measuring absorbance changes at 360 nm, reflecting the conversion of MESG to 7-methyl-6-thioguanine in the presence of inorganic phosphate. Phosphate quantification was performed using an extinction coefficient of 11,200 M^-1 cm^-1 at 360 nm.
(§4) Stock solutions of BCI (dissolved in DMSO) at different concentrations were prepared to maintain a constant DMSO concentration across all BCI concentrations in the phosphatase inhibition assays, thereby eliminating potential effects of varying DMSO levels on detection. Initial reaction rates were determined from the linear slope of progress curves, and the data were analyzed using nonlinear regression. Kinetic parameters (kcat and Km) were obtained by fitting the data to the Michaelis–Menten equation: v0 = kcat[E][S]/(Km + [S]). […]

MKP3^FL = target: T4, MKP3^FL (Homo sapiens, UniProt Q16828); assay: as above; conditions: BCI at concentration 50 times that of pERK2
T4 construct: MKP3(1–381) (MKP3^FL); made in house; host or cells: Escherichia coli BL21(DE3)
T4 sequence (Q16828 1-381): T1 sequence (Q16828 1-381 R85G) with G85R
Description: as §3, §4

O=C1/C(=C/c2ccccc2)C(NC2CCCCC2)c2ccccc21 (stereo not shown) [BCI, (E)-2-benzylidene-3-(cyclohexylamino)-2,3-dihydro-1H-inden-1-one]
enzymatic activity upon BCI addition compared with MKP3^WT (MKP3 R85G): BCI inhibition comparable to MKP3^WT | enzymatic activity upon BCI addition compared with MKP3^WT (MKP3 R89A): higher enzymatic activity than WT MKP3 | effect on MKP3^CD activity toward pERK2 (MKP3^CD): no effect | extension of pERK2 dephosphorylation time (MKP3^FL): more than 20 fold
